From BindingDB's records for patent US20240190875 (Changchun Genescience Pharmaceutical Co., 2024)
pEC50: −log10 of the molar value.

Target: Growth hormone secretagogue receptor type 1 (Homo sapiens, UniProt Q92847)
Assay: Determination of Human GHSR Agonist Activity
Text: This method was used to determine the agonism effect of the compound of the invention on the activity of human GHSR protein expressed in human GHSR/CHO stable cell line.

Sequence of Growth hormone secretagogue receptor type 1 (Q92847 whole entry): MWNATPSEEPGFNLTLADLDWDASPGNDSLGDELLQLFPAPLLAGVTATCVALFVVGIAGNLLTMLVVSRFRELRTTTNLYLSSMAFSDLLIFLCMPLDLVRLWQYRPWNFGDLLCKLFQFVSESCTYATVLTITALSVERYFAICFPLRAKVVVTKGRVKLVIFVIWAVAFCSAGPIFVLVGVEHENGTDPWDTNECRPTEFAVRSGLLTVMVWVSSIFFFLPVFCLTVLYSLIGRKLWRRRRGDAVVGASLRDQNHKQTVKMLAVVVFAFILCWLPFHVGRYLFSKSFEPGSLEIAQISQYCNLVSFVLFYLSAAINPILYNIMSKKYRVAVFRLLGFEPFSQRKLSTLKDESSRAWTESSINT

Row | pEC50 | SMILES
1 | 7.81 | CC(C)(NC(=O)[C@@H](N)CCC(N)=O)C(=O)N[C@H](COCc1ccccc1)C(=O)N1CCC2(CC1)CN(S(C)(=O)=O)c1ccccc12 [US20240190875, Example 1]
2 | 8.01 | CC(C)(NC(=O)CN)C(=O)N[C@H](COCc1ccccc1)C(=O)N1CCC2(CC1)CN(S(C)(=O)=O)c1ccccc12 [US20240190875, Example 16]
3 | 7.61 | Cc1oc(=O)oc1COC(=O)NC(C)(C)C(=O)N[C@H](COCc1ccccc1)C(=O)N1CCC2(CC1)CN(S(C)(=O)=O)c1ccccc12 [US20240190875, Example 17]
4 | 7.82 | C[n+]1cccc(C(=O)NC(C)(C)C(=O)N[C@H](COCc2ccccc2)C(=O)N2CCC3(CC2)CN(S(C)(=O)=O)c2ccccc23)c1 [US20240190875, Example 18]
5 | 7.61 | CC(=O)/C=C(/C)NC(C)(C)C(=O)N[C@H](COCc1ccccc1)C(=O)N1CCC2(CC1)CN(S(C)(=O)=O)c1ccccc12 [US20240190875, Example 19]

Row | SMILES | pEC50
6 | CC(C)C(=O)OCOC(=O)NC(C)(C)C(=O)N[C@H](COCc1ccccc1)C(=O)N1CCC2(CC1)CN(S(C)(=O)=O)c1ccccc12 [US20240190875, Example 15] | 8.37
7 | CC(C)(C)C(=O)OCOC(=O)NC(C)(C)C(=O)N[C@H](COCc1ccccc1)C(=O)N1CCC2(CC1)CN(S(C)(=O)=O)c1ccccc12 [US20240190875, Example 21] | 7.74
8 | CC(=O)OCOC(=O)NC(C)(C)C(=O)N[C@H](COCc1ccccc1)C(=O)N1CCC2(CC1)CN(S(C)(=O)=O)c1ccccc12 [US20240190875, Example 22] | 8.03
